Measurements taken from US12325697B2 (Nimbus Clio, Inc., priority 2021, dated 2025).
pIC50: −log10 of the molar value.

Target: Recombinant human Cbl-b (aa 36-427) (Homo sapiens (Human), UniProt Q13191)
Assay: Cbl-b Biochemical Assay (TR-FRET)
Conditions: read-out: TR-FRET hCbl-b IC50
Summary of the method: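 IC50 from 4-parameter fit of % inhibition (DMSO max, reference-inhibitor min), duplicate ten-point series. Compound preincubated with 6 nM Cbl-b, then Src-Zap70 (1-2.5 nM)/0.5 mM ATP reaction 60 min RT; EDTA quench with labelled UBE2D2-Ub and streptavidin-terbium, 60 min, HTRF at 520 nm.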

Chain of Recombinant human Cbl-b (aa 36-427) (Q13191 36-427): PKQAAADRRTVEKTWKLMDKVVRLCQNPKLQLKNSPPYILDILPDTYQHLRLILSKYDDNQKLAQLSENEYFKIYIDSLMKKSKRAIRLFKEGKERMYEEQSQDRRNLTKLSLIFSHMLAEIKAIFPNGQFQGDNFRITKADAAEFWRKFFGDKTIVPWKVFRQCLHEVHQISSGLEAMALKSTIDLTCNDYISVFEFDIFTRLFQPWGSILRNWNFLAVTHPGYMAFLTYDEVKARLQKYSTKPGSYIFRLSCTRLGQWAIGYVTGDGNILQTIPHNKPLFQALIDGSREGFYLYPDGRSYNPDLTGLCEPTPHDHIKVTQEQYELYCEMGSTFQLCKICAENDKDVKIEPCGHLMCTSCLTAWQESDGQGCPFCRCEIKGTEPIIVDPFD

SMILES | pIC50
CN(C)c1cc(-c2ccccc2-c2nncn2C)cc(N2Cc3c(cc(CO)cc3C(F)(F)F)C2=O)n1 [AD-4, 2-(6-(dimethylamino)-4-(2-(4-methyl-4H-1,2,4-triazol-3-yl)phenyl)pyridin-2-yl)-6-(hydroxymethyl)-4-(trifluoromethyl)isoindolin-1-one] | 6.00 to 6.70
CCNc1cc(-c2ccccc2-c2nncn2C)cc(N2Cc3c(cc(CN4CCC[C@@H](C)C4)cc3C(F)(F)F)C2=O)n1 [AE-2, (R)-2-(6-(Ethylamino)-4-(2-(4-methyl-4H-1,2,4-triazol-3-yl)phenyl)pyridin-2-yl)-6-((3-methylpiperidin-1-yl)methyl)-4-(trifluoromethyl)isoindolin-1-one] | ≥ 6.70
CCNc1cc(-c2ccccc2-c2nncn2C)cc(N2Cc3c(cc(CN4CCC[C@H](C)C4)cc3C(F)(F)F)C2=O)n1 [AF-1, (S)-2-(6-(Ethylamino)-4-(2-(4-methyl-4H-1,2,4-triazol-3-yl)phenyl)pyridine-2-yl)6-((3-methylpiperidin-1-yl)methyl)-4-(trifluoromethyl)isoindolin-1-one] | ≥ 6.70
CCNc1cc(-c2ccccc2-c2nncn2C)cc(N2Cc3c(cc(CN4CC(F)C4)cc3C(F)(F)F)C2=O)n1 [AG-1, 2-(6-(Ethylamino)-4-(2-(4-methyl-4H-1,2,4-triazol-3-yl)phenyl)pyridin-2-yl)-6-((3-fluoroazetidin-1-yl)methyl)-4-(trifluoromethyl)isoindolin-1-one] | ≥ 6.70
CCNc1cc(-c2ccccc2-c2nncn2C)cc(N2Cc3c(cc(CN4CCC5(CC4)CC5)cc3C(F)(F)F)C2=O)n1 [AI-2, 6-((6-Azaspiro[2.5]octan-6-yl)methyl)-2-(6-(ethylamino)-4-(2-(4-methyl-4H-1,2,4-triazol-3-yl)phenyl)pyridin-2-yl)-4-(trifluoromethyl)isoindolin-1-one] | ≥ 6.70
CCNc1cc(-c2ccccc2-c2nncn2C)cc(N2Cc3c(cc(CN4CC[C@H](F)C4)cc3C(F)(F)F)C2=O)n1 [AJ-1, (S)-2-(6-(Ethylamino)-4-(2-(4-methyl-4H-1,2,4-triazol-3-yl)phenyl)pyridin-2-yl)-6-((3-fluoropyrrolidin-1-yl)methyl)-4-(trifluoromethyl)isoindolin-1-one] | ≥ 6.70
CCNc1cc(-c2ccccc2-c2nncn2C)cc(N2Cc3c(cc(CN4CCC(F)(F)C(C)C4)cc3C(F)(F)F)C2=O)n1 (stereo not shown) [AK-2, 6-((4,4-Difluoro-3-methylpiperidin-1-yl)methyl)-2-(6-(ethylamino)-4-(2-(4-methyl-4H-1,2,4-triazol-3-yl)phenyl)pyridin-2-yl)-4-(trifluoromethyl)isoindolin-1-one] | ≥ 6.70
CCNc1cc(-c2ccccc2-c2nncn2C)cc(N2Cc3c(cc(CN4CCO[C@@H](C)C4)cc3C(F)(F)F)C2=O)n1 [AL-1, (S)-2-(6-(Ethylamino)-4-(2-(4-methyl-4H-1,2,4-triazol-3-yl)phenyl)pyridin-2-yl)-6-((2-methylmorpholino)methyl)-4-(trifluoromethyl)isoindolin-1-one] | ≥ 6.70
CCNc1cc(-c2ccccc2-c2nncn2C)cc(N2Cc3c(cc(CN4CCOCC4)cc3C(F)(F)F)C2=O)n1 [AM-2, 2-(6-(Ethylamino)-4-(2-(4-methyl-4H-1,2,4-triazol-3-yl)phenyl)pyridin-2-yl)-6-(morpholinomethyl)-4-(trifluoromethyl)isoindolin-1-one] | ≥ 6.70
CCNc1cc(-c2ccccc2-c2nncn2C)cc(N2Cc3c(cc(CN4CCO[C@H](C)C4)cc3C(F)(F)F)C2=O)n1 [AN-1, (R)-2-(6-(Ethylamino)-4-(2-(4-methyl-4H-1,2,4-triazol-3-yl)phenyl)pyridin-2-yl)-6-((2-methylmorpholino)methyl)-4-(trifluoromethyl)isoindolin-1-one] | ≥ 6.70
CCNc1cc(-c2ccccc2-c2nncn2C)cc(N2Cc3c(cc(CN[C@@H]4CCC[C@H]4O)cc3C(F)(F)F)C2=O)n1 [AO-1, 2-(6-(Ethylamino)-4-(2-(4-methyl-4H-1,2,4-triazol-3-yl)phenyl)pyridin-2-yl)-6-((((1R,2R)-2-hydroxycyclopentyl)amino)methyl)-4-(trifluoromethyl)isoindolin-1-one] | ≥ 6.70
CCNc1cc(-c2ccccc2-c2nncn2C)cc(N2Cc3c(cc(CN[C@H]4CCC[C@@H]4O)cc3C(F)(F)F)C2=O)n1 [AP-1, 2-(6-(Ethylamino)-4-(2-(4-methyl-4H-1,2,4-triazol-3-yl)phenyl)pyridin-2-yl)-6-((((1S,2S)-2-hydroxycyclopentyl)amino)methyl)-4-(trifluoromethyl)isoindolin-1-one] | ≥ 6.70
CCNc1cc(-c2ccccc2-c2nncn2C)cc(N2Cc3c(cc(CN[C@@H]4CCC[C@@H]4O)cc3C(F)(F)F)C2=O)n1 [AQ-1, 2-(6-(Ethylamino)-4-(2-(4-methyl-4H-1,2,4-triazol-3-yl)phenyl)pyridin-2-yl)-6-((((1R,2S)-2-hydroxycyclopentyl)amino)methyl)-4-(trifluoromethyl)isoindolin-1-one] | ≥ 6.70
CCNc1cc(-c2ccccc2-c2nncn2C)cc(N2Cc3c(cc(CN[C@H]4CCC[C@H]4O)cc3C(F)(F)F)C2=O)n1 [AR-1, 2-(6-(Ethylamino)-4-(2-(4-methyl-4H-1,2,4-triazol-3-yl)phenyl)pyridin-2-yl)-6-((((1S,2R)-2-hydroxycyclopentyl)amino)methyl)-4-(trifluoromethyl)isoindolin-1-one] | ≥ 6.70
CCNc1cc(-c2ccccc2-c2nncn2C)cc(N2Cc3c(cc(COC)cc3C(F)(F)F)C2=O)n1 [AS-2, 2-(6-(Ethylamino)-4-(2-(4-methyl-4H-1,2,4-triazol-3-yl)phenyl)pyridin-2-yl)-6-(methoxymethyl)-4-(trifluoromethyl)isoindolin-1-one] | ≥ 6.70
COc1ccc([C@@H](C)Cc2nncn2C)cc1N1Cc2c(cc(CN3CCCC3)cc2C(F)(F)F)C1=O [Example F-9, (S)-2-(2-Methoxy-5-(1-(4-methyl-4H-1,2,4-triazol-3-yl)propan-2-yl)phenyl)-6-(pyrrolidin-1-ylmethyl)-4-(trifluoromethyl)isoindolin-1-one] | 5.00 to 6.00
COc1ccc(-c2ccccc2-c2nncn2C)cc1N1Cc2c(cccc2C(F)(F)F)C1=O [Example G-4, 2-(4-Methoxy-2′-(4-methyl-4H-1,2,4-triazol-3-yl)-[1,1′-biphenyl]-3-yl)-4-(trifluoromethyl)isoindolin-1-one] | 4.30 to 5.00
COC(=O)c1cc(-c2ccccc2-c2nncn2C)cc(N2Cc3c(cccc3C(F)(F)F)C2=O)c1 [Example H-5, Methyl 2′-(4-methyl-4H-1,2,4-triazol-3-yl)-5-(1-oxo-4-(trifluoromethyl)isoindolin-2-yl)-[1,1′-biphenyl]-3-carboxylate] | 4.30 to 5.00
Cn1cnnc1-c1ccccc1-c1cc(C(=O)O)cc(N2Cc3c(cccc3C(F)(F)F)C2=O)c1 [Example I-1, 2′-(4-Methyl-4H-1,2,4-triazol-3-yl)-5-(1-oxo-4-(trifluoromethyl)isoindolin-2-yl)-[1,1′-biphenyl]-3-carboxylic acid] | 4.30 to 5.00
Cn1cnnc1-c1ccccc1-c1cc(N2Cc3c(cccc3C(F)(F)F)C2=O)nc(C(F)(F)F)c1 [Example J-4, 2-(4-(2-(4-Methyl-4H-1,2,4-triazol-3-yl)phenyl)-6-(trifluoromethyl)pyridin-2-yl)-4-(trifluoromethyl)isoindolin-1-one] | 4.30 to 5.00
Cn1cnnc1-c1ccccc1-c1cc(N2Cc3c(cccc3C(F)(F)F)C2=O)cc(C(F)(F)F)c1 [Example K-3, 2-(2′-(4-Methyl-4H-1,2,4-triazol-3-yl)-5-(trifluoromethyl)-[1,1′-biphenyl]-3-yl)-4-(trifluoromethyl)isoindolin-1-one] | 5.00 to 6.00
Cn1cnnc1-c1ccccc1-c1cc(N2Cc3c(cccc3C(F)(F)F)C2=O)nc2[nH]ccc12 [Example L-5, 2-(4-(2-(4-Methyl-4H-1,2,4-triazol-3-yl)phenyl)-1H-pyrrolo[2,3-b]pyridin-6-yl)-4-(trifluoromethyl)isoindolin-1-one] | 4.30 to 5.00
CCn1ccc2c(-c3ccccc3-c3nncn3C)cc(N3Cc4c(cccc4C(F)(F)F)C3=O)nc21 [Example M-2, 2-(1-Ethyl-4-(2-(4-methyl-4H-1,2,4-triazol-3-yl)phenyl)-1H-pyrrolo[2,3-b]pyridin-6-yl)-4-(trifluoromethyl)isoindolin-1-one] | 5.00 to 6.00
Cn1cnnc1-c1ccccc1-c1cc(CO)cc(N2Cc3c(cccc3C(F)(F)F)C2=O)c1 [Example N-5, 2-(5-(Hydroxymethyl)-2′-(4-methyl-4H-1,2,4-triazol-3-yl)-[1,1′-biphenyl]-3-yl)-4-(trifluoromethyl)isoindolin-1-one] | 5.00 to 6.00
CNC(=O)c1cc(-c2ccccc2-c2nncn2C)cc(N2Cc3c(cccc3C(F)(F)F)C2=O)c1 [Example O-3, N-Methyl-2′-(4-methyl-4H-1,2,4-triazol-3-yl)-5-(1-oxo-4-(trifluoromethyl)isoindolin-2-yl)-[1,1′-biphenyl]-3-carboxamide] | 4.30 to 5.00
Cn1cnnc1-c1ccccc1-c1cccc(N2Cc3c(cc(CO)cc3C(F)(F)F)C2=O)c1 [Example P-2, 6-(Hydroxymethyl)-2-(2′-(4-methyl-4H-1,2,4-triazol-3-yl)-[1,1′-biphenyl]-3-yl)-4-(trifluoromethyl)isoindolin-1-one] | 6.00 to 6.70
C[C@H]1CCCN(Cc2cc3c(c(C(F)(F)F)c2)CN(c2cccc(-c4ccccc4-c4nncn4C)c2)C3=O)C1 [Example R-2, (S)-2-(2′-(4-Methyl-4H-1,2,4-triazol-3-yl)-[1,1′-biphenyl]-3-yl)-6-((3-methylpiperidin-1-yl)methyl)-4-(trifluoromethyl)isoindolin-1-one] | ≥ 6.70
C[C@@H]1CCCN(Cc2cc3c(c(C(F)(F)F)c2)CN(c2cccc(-c4ccccc4-c4nncn4C)c2)C3=O)C1 [Example S-2, (R)-2-(2′-(4-Methyl-4H-1,2,4-triazol-3-yl)-[1,1′-biphenyl]-3-yl)-6-((3-methylpiperidin-1-yl)methyl)-4-(trifluoromethyl)isoindolin-1-one] | 6.00 to 6.70
